According to patent US20020018762A1, “Utilizing camptotheca products for termite control” (priority 2000, published 2002):
Where two headings read alike, the source gives them in different places.

Tests used:
[1] = system: subterranean termites (Reticultitermes virginicus)
Protocol: 60 active subterranean termites (Reticultitermes virginicus) were grown in 9 cm Petri dishes in dark with 15 termites (10 soldiers and 5 workers) in each of four dishes. In each dish, a filter paper is placed on the bottom of the dish to retain moisture along with a piece of treated southern yellow pine wood (decayed, 3×3×7 cm). The wood was treated with one of the following natural products isolated from Camptotheca acuminata or water (as control) for 30 minutes and then dried: (1) pure CPT (>97%) (camptothecin, 3.8 mg/l=3.8 ppm, with water as the solvent); (2) raw extraction of CPTs from young tissues (alkaloids: 8.75 mg/l=8.75 ppm, with 95% ethanol as the solvent); (3) flavonoids (13.9 mg/l=13.9 ppm with water as the solvent); and (4) water (control). The termites and wood condition were checked and recorded every hour for the first 12 hours and every 8 hrs thereafter. The observation period was 4 weeks (May 17 to Jun. 14, 2000).

subterranean termites = settings: for Damage to the treated wood sample: 4-week observation period; for Termites dead within 24 hours: of 30 termites
Protocol: 180 active subterranean termites, were grown in 9 cm Petri dishes in the dark with 30 termites in each of six dishes. In each dish, a filter paper is on the bottom to retain moisture along with a piece of treated southern yellow pine wood (relatively fresh, 3×3×7 cm). The wood was treated with one of the following natural products isolated from Camptotheca acuminata or water (as control) for 30 minutes and then dried: (1) pure CPT (>97%) (3.8 mg/l=3.8 ppm, with water as the solvent); (2) OHCPT (10-hydroxycamptothecin: 3.8 mg/l=3.8 ppm, with water as the solvent); (3) raw extraction of CPTs from young tissues (alkaloids: 8.75 mg/l=8.75 ppm, with 95% ethanol as the solvent); (4) flavonoids (13.9 mg/l=13.9 ppm with water as the solvent); (5) ethanol (95%); and (6) water (control). The termites and wood condition were checked and recorded every hour for the first 12 hours and every 8 hrs thereafter. The observation period was 4 weeks (May 20 to Jun. 17, 2000).

[2] = system: termites (including drywood termite, Incistermes snyderi); assay: Field test of termite resistance of sprayed southern yellow pine boards (Example 3); type: in vivo
Protocol: There were 4 treatments including 3 pieces of sound southern yellow pine boards (30×9×4 cm) each. The wood was treated with either a natural product isolated from Camptotheca acuminata or water as a control. […] The boards were randomly placed on the ground where no termites were observed. The wood condition and termite activity were checked and recorded every week beginning May 20, 2000.

[3] = Water soak of Camptotheca stakes, HPLC analysis of extracted flavonoids and CPTs (Example 5, FIG. 3); type: physicochemical
Excerpt: For example, the Camptotheca wood containing CPTs (CPT concentrations: 30-100 ppm) after extraction of flavonoids may be used in preparation of termite-resistant wood products such as composition boards, particleboards, and fiberboards. FIG. 3 illustrates the effect of a water soak on the content of flavonoids and CPT over time.
In July 2000, we conducted an experiment with several pieces of Camptotheca stakes (c. 10 cm in length and 3 cm in diameter) soaked in nanopure water. A month later, water samples were collected from the water with stakes and only water (as control) for HPLC analysis.

[4] = Effect of the particleboard process on CPT content (FIG. 4); type: physicochemical; settings: heat and pressure pressing
Excerpt: Particleboard is an engineered wood product used as core material in the construction of home and office furniture, shelving and kitchen cabinets, as well as commercial and institutional fixtures. The major source for the manufacture of particleboard is southern yellow pine. Termite-resistant particleboard is not available. The present invention provides a method of preparing termite-resistant particleboards by including 30-70% Camptotheca wood in combination with currently-existing particleboard materials, e.g., pine, in a process as shown in Example 6. […] Similarly, the CPT content 260 in the raw material from bark and wood 290 and the particleboard from bark and wood 300 remained the same after the particleboard process.
Termite-resistant particleboards were prepared in accordance with the invention, using southern yellow pine mixed with natural Camptotheca acuminata wood after extraction of flavonoids. Six 5-year-old Camptotheca acuminata trees were harvested. The wood materials were classified into: trunk wood without bark, trunk wood with bark, branch wood without bark, and branch wood with bark. The sample materials were chipped and milled into uniformly small particles (20-30 mesh) and soaked in water for a week. The southern yellow pine wood was prepared in the same size as the control sample. […]

[5] = system: Masson pine caterpillar (Dendrolimus punctatus); settings: cited from earlier work
[6] = 15 termites per dish, wood treated 30 min, CPT 3.8 ppm, raw CPTs 8.75 ppm, flavonoids 13.9 ppm
[7] = 30 termites per dish, CPT 3.8 ppm, OHCPT 3.8 ppm, raw CPTs 8.75 ppm, flavonoids 13.9 ppm, ethanol 95%

CC[C@@]1(O)C(=O)OCc2c1cc1n(c2=O)Cc2cc3ccccc3nc2-1 [CPT, camptothecin]
Damage to the treated wood sample ([1]; 4-week observation period): no obvious damage | Time within which termite mortality was 100% ([1]; 15 termites per dish, CPT 3.8 ppm, raw CPTs 8.75 ppm): ≤ 4 days | Mortality within 1 week [1, 6]: 100% | Mortality within 4 weeks [1, 6]: 100% | Mortality within 1 week ([1]; 15 termites per dish, wood treated 30 min, CPT 3.8 ppm, raw CPTs 8.75 ppm, flavonoids 13.9 ppm, listed as purified CPT): all termites dead | Time after which termites became inactive ([1]; CPT 3.8 ppm): 6 h | Termites dead within 36 hours ([1]; of total 15 termites, CPT 3.8 ppm): Six | Termite damage of treated pine stakes within a week ([1]; summary of Examples 1 and 2): damage free | Damage to the treated wood sample (subterranean termites): no obvious damage | Time within which termite mortality was 100% (subterranean termites; 30 termites per dish): ≤ 5 days | Mortality within 1 week (subterranean termites; [7]): 100% | Mortality within 4 weeks (subterranean termites; [7]): 100% | Time after which all termites became inactive (subterranean termites; CPT 3.8 ppm): 10 h | Termite behaviour toward the treated wood (repellency / attraction) (subterranean termites; in vivo): avoided getting close to the wood after the initial contract | Termites dead within 24 hours (subterranean termites): 12 | Termite damage of treated wood (based on weight) ([2]; field, three months, CPT 380 ppm, raw CPTs 8.75 ppm, flavonoids 13.9 ppm): no termite damage | Termite damage of treated southern yellow pine lumber in the field ([2]; within 3 months): damage-free | Extraction by water soak at day 7 (FIG. 3) ([3]; day 7): not extracted | Extraction by water soak at day 30 (FIG. 3) ([3]; day 30): remains water insoluble | Effect of particleboard process on CPT content [4]: no significant effect | Hatchability of eggs ([5]; after treatment with 0.05% CPT): decreased | Mortality of insect larvae, pupae, and adults ([5]; after treatment with CPT): increased

CCO [Ethanol, ethanol]
Damage to the treated wood sample (subterranean termites): No wood damage | Mortality within 1 week (subterranean termites; in vivo): 100% | Mortality within 4 weeks (subterranean termites; in vivo): 100%

CC[C@@]1(O)C(=O)OCc2c1cc1n(c2=O)Cc2cc3cc(O)ccc3nc2-1 [OHCPT, 10-hydroxycamptothecin]
Damage to the treated wood sample (subterranean termites): no obvious damage | Time within which termite mortality was 100% (subterranean termites; 30 termites per dish): ≤ 6 days | Mortality within 1 week (subterranean termites; [7]): 100% | Mortality within 4 weeks (subterranean termites; [7]): 100% | Termites dead within 24 hours (subterranean termites): 16
